What follows are molecules tested against KAT2A (Homo sapiens, UniProt Q92830) (assay: KAT2A degradation, Western Blot (Jess), MOLM-13 cells). Settings: MOLM-13 cells, KAT2A, 24 h, Western Blot, vs DMSO; read-out: KAT2A MOLM-13 DC50.
KAT2A, sequence (Q92830 whole entry): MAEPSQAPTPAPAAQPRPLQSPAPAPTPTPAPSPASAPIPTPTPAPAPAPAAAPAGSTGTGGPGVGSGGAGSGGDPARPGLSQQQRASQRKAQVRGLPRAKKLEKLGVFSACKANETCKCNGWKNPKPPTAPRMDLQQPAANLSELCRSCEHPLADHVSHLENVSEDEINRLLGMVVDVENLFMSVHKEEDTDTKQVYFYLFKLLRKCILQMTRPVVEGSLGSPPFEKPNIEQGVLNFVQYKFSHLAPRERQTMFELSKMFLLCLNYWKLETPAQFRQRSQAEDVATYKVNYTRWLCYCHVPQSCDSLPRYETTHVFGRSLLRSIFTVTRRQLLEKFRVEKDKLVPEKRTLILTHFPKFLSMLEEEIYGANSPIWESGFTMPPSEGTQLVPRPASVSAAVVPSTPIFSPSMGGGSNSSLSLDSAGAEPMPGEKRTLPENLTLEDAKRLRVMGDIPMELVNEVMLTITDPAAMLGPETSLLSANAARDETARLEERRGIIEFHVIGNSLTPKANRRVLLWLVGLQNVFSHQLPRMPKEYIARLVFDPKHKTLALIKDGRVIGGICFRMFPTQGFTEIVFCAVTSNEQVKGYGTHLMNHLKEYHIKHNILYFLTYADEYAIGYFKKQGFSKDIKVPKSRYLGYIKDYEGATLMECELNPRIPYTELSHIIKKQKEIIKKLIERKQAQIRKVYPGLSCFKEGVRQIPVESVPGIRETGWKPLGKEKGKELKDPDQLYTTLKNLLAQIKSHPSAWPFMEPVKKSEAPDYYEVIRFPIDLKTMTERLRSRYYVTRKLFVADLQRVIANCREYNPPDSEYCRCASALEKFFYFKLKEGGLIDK
Assay type: cell-based
Set-up: degrader, Western blot
Procedure: MOLM-13 cells or NCI-H1048 cells were used for Western Blot analysis of KAT2A degradation. KAT2B degradation can be measured in a similar manner with NCI-H1048 cells.
MOLM-13 cells were maintained at 37° C. in 5% CO2 and 90% humidity in RPMI 1640 supplemented with 20% fetal bovine serum (FBS) and 1× penicillin/streptomycin. Cells were plated in full media at 1-2 million cells/2 mL in a 6-well tissue culture treated plate with or without compounds for 24 h at 37° C. in 5% CO2.
MOLM-13 cells or NCI-H1048 cells were washed with PBS, then lysed with RIPA buffer containing 1×protease and phosphatase inhibitors (SantaCruz Biotechnologies Cat #sc-24948A). Protein was isolated by centrifugation at 12,000×g for 10 minutes at 4° C. and supernatant was collected. Protein was quantified via Bradford assay. Samples were diluted to 4 μg lysate in 16 μL RIPA buffer and then 4 μL of Jess Sample Buffer. Samples were heated at 95° C. for 5 minutes. Samples were loaded onto 12-230 kDa Jess™ Separation Module, 8×25 capillary cartridges (SM-W004, Biotechne). Antibodies loaded were: Primary antibody for KAT2A (GCN5L2 (C26A10) Rabbit mAb (3305, CST)) and for KAT2B (PCAF (C14G9)) Rabbit mAb (3378, CST) at 1:1000 and Anti-Rabbit Detection Module for Jess™ (Cat No #DM-001, Biotechne). Signal was detected by chemiluminescence.
DC50 values were determined from percent reduction of protein as compared to the DMSO control.
With `CN1C[C@H](Nc2cnn(C)c(=O)c2Br)C[C@H](c2ccc(C(=O)N(C)c3ccc(Oc4cccc5c4C(=O)N(C4CCC(=O)NC4=O)C5=O)cc3)cc2)C1` (stereo partly drawn) [Compound 1] the DC50 was 1 to 30 nM.
For `CN1C[C@H](Nc2cnn(C)c(=O)c2Br)C[C@H](c2ccc(C(=O)N(C)c3ccc(CCCOc4cccc5c4C(=O)N(C4CCC(=O)NC4=O)C5=O)cc3)cc2)C1` (stereo partly drawn) [Compound 2], the DC50 was 1 to 30 nM.
With `CN1C[C@H](Nc2cnn(C)c(=O)c2Br)C[C@H](c2ccc(C(=O)NCCCCCCCCCC(=O)Nc3ccc4c(c3)CN(C3CCC(=O)NC3=O)C4=O)cc2)C1` (stereo partly drawn) [Compound 3] the DC50 was less than 1 nM.
`CN1C[C@H](Nc2cnn(C)c(=O)c2Br)C[C@H](c2ccc(C(=O)NCCOCC(=O)Nc3ccc4c(c3)CN(C3CCC(=O)NC3=O)C4=O)cc2)C1` (stereo partly drawn) [Compound 4] showed a DC50 greater than 30 nM.
With `CN1C[C@H](Nc2cnn(C)c(=O)c2Br)C[C@H](c2ccc(C(=O)N3CCC(C#CC(=O)Nc4ccc5c(c4)CN(C4CCC(=O)NC4=O)C5=O)CC3)cc2)C1` (stereo partly drawn) [Compound 5] the DC50 was 1 to 30 nM.
`CN1C[C@H](Nc2cnn(C)c(=O)c2Br)C[C@H](c2ccc(C(=O)N3CCN(Cc4ccc(C(=O)Nc5cccc6c5C(=O)N(C5CCC(=O)NC5=O)C6=O)cc4)CC3)cc2)C1` (stereo partly drawn) [Compound 6] showed a DC50 of less than 1 nM.
Molecule `CN1C[C@H](Nc2cnn(C)c(=O)c2Br)C[C@H](c2ccc(C(=O)N3CCN(CCOCCC(=O)Nc4cccc5c4C(=O)N(C4CCC(=O)NC4=O)C5=O)CC3)cc2)C1` (stereo partly drawn) [Compound 7] has a DC50 of 1 to 30 nM.
In the case of `CN1C[C@H](Nc2cnn(C)c(=O)c2Br)C[C@H](c2ccc(C(=O)N(C)CCCCC#CCCCOc3cccc4c3C(=O)N(C3CCC(=O)NC3=O)C4=O)cc2)C1` (stereo partly drawn) [Compound 8], the DC50 is reported as 1 to 30 nM.
In the case of `CN1C[C@H](Nc2cnn(C)c(=O)c2Br)C[C@H](c2ccc(C(=O)N3CCN(CC4CCN(c5cccc6c5C(=O)N(C5CCC(=O)NC5=O)C6=O)CC4)CC3)cc2)C1` (stereo partly drawn) [Compound 9], the DC50 is reported as less than 1 nM.
With `CN1C[C@H](Nc2cnn(C)c(=O)c2Br)C[C@H](c2ccc(C(=O)N3CCC(C(=O)N4CCN(c5cccc6c5C(=O)N(C5CCC(=O)NC5=O)C6=O)CC4)CC3)cc2)C1` (stereo partly drawn) [Compound 10] the DC50 was 1 to 30 nM.
`CN1C[C@H](Nc2cnn(C)c(=O)c2Br)C[C@H](c2ccc(C(=O)NCCCCCCOCCOCC(=O)Nc3cccc4c3C(=O)N(C3CCC(=O)NC3=O)C4=O)cc2)C1` (stereo partly drawn) [Compound 12] gave a DC50 of 1 to 30 nM.
For `CN1C[C@H](Nc2cnn(C)c(=O)c2Br)C[C@H](c2ccc(C(=O)N(C)C3CCN(c4cccc5c4C(=O)N(C4CCC(=O)NC4=O)C5=O)CC3)cc2)C1` (stereo partly drawn) [Compound 13], the DC50 was 1 to 30 nM.
Work on `CN1C[C@H](Nc2cnn(C)c(=O)c2Br)C[C@H](c2ccc(C(=O)N3CCN(c4cccc5c4C(=O)N(C4CCC(=O)NC4=O)C5=O)CC3)cc2)C1` (stereo partly drawn) [Compound 14] yielded a DC50 of less than 1 nM.
For `CN1C[C@H](Nc2cnn(C)c(=O)c2Br)C[C@H](c2ccc(C(=O)NC3CCN(c4cccc5c4C(=O)N(C4CCC(=O)NC4=O)C5=O)CC3)cc2)C1` (stereo partly drawn) [Compound 15], the DC50 was 1 to 30 nM.
With `CN1C[C@H](Nc2cnn(C)c(=O)c2Br)C[C@H](c2ccc(C(=O)N3CCC(Oc4cccc5c4C(=O)N(C4CCC(=O)NC4=O)C5=O)CC3)cc2)C1` (stereo partly drawn) [Compound 19] the DC50 was 1 to 30 nM.
`CN1C[C@H](Nc2cnn(C)c(=O)c2Br)C[C@H](c2ccc(C(=O)N3CCN(Cc4ccc5c(c4)C(=O)N(C4CCC(=O)NC4=O)C5=O)CC3)cc2)C1` (stereo partly drawn) [Compound 25] was tested, and the DC50 was less than 1 nM.
`CN1C[C@H](Nc2cnn(C)c(=O)c2Br)C[C@H](c2ccc(C(=O)N(C)c3cccc(Oc4cccc5c4C(=O)N(C4CCC(=O)NC4)C5=O)c3)cc2)C1` (stereo partly drawn) [Compound 26] showed a DC50 of 1 to 30 nM.
`CN1C[C@H](Nc2cnn(C)c(=O)c2Br)C[C@H](c2ccc(C(=O)N3CCN(c4cccc5c4C(=O)N(C4CCC(=O)NC4=O)C5=O)CC3)cc2)C1` (stereo partly drawn) [Compound 27] showed a DC50 of less than 1 nM.
Work on `CN1C[C@H](Nc2cnn(C)c(=O)c2Br)C[C@H](c2ccc(C(=O)N3CC4(C3)CN(c3cccc5c3C(=O)N(C3CCC(=O)NC3=O)C5=O)C4)cc2)C1` (stereo partly drawn) [Compound 29] yielded a DC50 of less than 1 nM.
`CN1C[C@H](Nc2cnn(C)c(=O)c2Br)C[C@H](c2ccc(C(=O)N3CC(Oc4ccc5c(c4)C(=O)N(C4CCC(=O)NC4=O)C5=O)C3)cc2)C1` (stereo partly drawn) [Compound 30] was tested, and the DC50 was 1 to 30 nM.
Molecule `CN1C[C@H](Nc2cnn(C)c(=O)c2Br)C[C@H](c2ccc(C(=O)OCC3CCN(c4cccc5c4C(=O)N(C4CCC(=O)NC4=O)C5=O)CC3)cc2)C1` (stereo partly drawn) [Compound 32] has a DC50 of 1 to 30 nM.
With `CN1C[C@H](Nc2cnn(C)c(=O)c2Br)C[C@H](c2ccc(C(=O)N(C)Cc3ccc(Oc4cccc5c4C(=O)N(C4CCC(=O)NC4=O)C5=O)cc3)cc2)C1` (stereo partly drawn) [Compound 33] the DC50 was less than 1 nM.
In the case of `CN1C[C@H](Nc2cnn(C)c(=O)c2Br)C[C@H](c2ccc(C(=O)N(C)c3cccc(Oc4ccc5c(c4)C(=O)N(C4CCC(=O)NC4=O)C5=O)c3)cc2)C1` (stereo partly drawn) [Compound 34], the DC50 is reported as 1 to 30 nM.
With `CN1C[C@H](Nc2cnn(C)c(=O)c2Br)C[C@H](c2ccc(CNCC3CCC(COc4cccc5c4C(=O)N(C4CCC(=O)NC4=O)C5=O)CC3)cc2)C1` (stereo partly drawn) [Compound 35] the DC50 was less than 1 nM.
`CN1C[C@H](Nc2cnn(C)c(=O)c2Br)C[C@H](c2ccc(CN3CCC(Oc4cccc5c4C(=O)N(C4CCC(=O)NC4=O)C5=O)CC3)cc2)C1` (stereo partly drawn) [Compound 36] gave a DC50 of 1 to 30 nM.
`CN1C[C@H](Nc2cnn(C)c(=O)c2Br)C[C@H](c2ccc(CN3CC4(C3)CN(c3ccc5c(c3)CN(C3CCC(=O)NC3=O)C5=O)C4)cc2)C1` (stereo partly drawn) [Compound 37] gave a DC50 of less than 1 nM.
In the case of `CN1C[C@H](Nc2cnn(C)c(=O)c2Br)C[C@H](c2ccc(COc3cccc4c3C(=O)N(C3CCC(=O)NC3=O)C4=O)cc2)C1` (stereo partly drawn) [Compound 38], the DC50 is reported as 1 to 30 nM.
Molecule `CN1C[C@H](Nc2cnn(C)c(=O)c2Br)C[C@H](c2ccc(C(=O)NCCCCCCOc3cccc4c3C(=O)N(C3CCC(=O)NC3=O)C4=O)cc2)C1` (stereo partly drawn) [Compound 41] has a DC50 of less than 1 nM.
`CN1C[C@H](Nc2cnn(C)c(=O)c2Br)C[C@H](c2ccc(C(=O)NCCCCCCCCOc3cccc4c3C(=O)N(C3CCC(=O)NC3=O)C4=O)cc2)C1` (stereo partly drawn) [Compound 42] gave a DC50 of 1 to 30 nM.
`CN1C[C@H](Nc2cnn(C)c(=O)c2Br)C[C@H](c2ccc(C(=O)NCCOCCn3cc(COCCOc4cccc5c4C(=O)N(C4CCC(=O)NC4=O)C5=O)nn3)cc2)C1` (stereo partly drawn) [Compound 43] showed a DC50 greater than 30 nM.
In the case of `CN1C[C@H](Nc2cnn(C)c(=O)c2Br)C[C@H](c2ccc(C(=O)N(C)CCOc3cccc4c3C(=O)N(C3CCC(=O)NC3=O)C4=O)cc2)C1` (stereo partly drawn) [Compound 44], the DC50 is reported as 1 to 30 nM.
`CN1C[C@H](Nc2cnn(C)c(=O)c2Br)C[C@H](c2ccc(C(=O)N3CCC(COc4cccc5c4C(=O)N(C4CCC(=O)NC4=O)C5=O)CC3)cc2)C1` (stereo partly drawn) [Compound 45] showed a DC50 of less than 1 nM.
Work on `CN1C[C@H](Nc2cnn(C)c(=O)c2Cl)C[C@H](c2ccc(C(=O)N3CCN(Cc4ccc(C(=O)Nc5cccc6c5C(=O)N(C5CCC(=O)NC5=O)C6=O)cc4)CC3)cc2)C1` (stereo partly drawn) [Compound 46] yielded a DC50 of 1 to 30 nM.
With `CN1C[C@H](Nc2nn(C)c(=O)c3cccnc23)C[C@H](c2ccc(C(=O)N3CCN(Cc4ccc(C(=O)Nc5cccc6c5C(=O)N(C5CCC(=O)NC5=O)C6=O)cc4)CC3)cc2)C1` (stereo partly drawn) [Compound 47] the DC50 was greater than 30 nM.
With `CN(Cc1ccc(Oc2cccc3c2C(=O)N(C2CCC(=O)NC2=O)C3=O)cc1)Cc1ccc([C@H]2C[C@@H](Nc3cnn(C)c(=O)c3Br)CN(C)C2)cc1` (stereo partly drawn) [Compound 48] the DC50 was less than 1 nM.
For `CN1C[C@H](Nc2cnn(C)c(=O)c2Br)C[C@H](c2ccc(C(=O)N3CCN(Cc4ccc(Oc5cccc6c5C(=O)N(C5CCC(=O)NC5=O)C6=O)cc4)CC3)cc2)C1` (stereo partly drawn) [Compound 49], the DC50 was less than 1 nM.
Work on `CN1C[C@H](Nc2cnn(C)c(=O)c2Br)C[C@H](c2ccc(CN3CCN(Cc4ccc(Oc5cccc6c5C(=O)N(C5CCC(=O)NC5=O)C6=O)cc4)CC3)cc2)C1` (stereo partly drawn) [Compound 50] yielded a DC50 of less than 1 nM.
Work on `CN1C[C@H](Nc2cnn(C)c(=O)c2Br)C[C@H](c2ccc(CN3CC4(C3)CN(c3cccc5c3C(=O)N(C3CCC(=O)NC3=O)C5=O)C4)cc2)C1` (stereo partly drawn) [Compound 51] yielded a DC50 greater than 30 nM.
In the case of `CN1C[C@H](Nc2cnn(C)c(=O)c2Br)C[C@H](c2ccc(C(=O)N3CCN(Cc4cccc5c4C(=O)N(C4CCC(=O)NC4=O)C5=O)CC3)cc2)C1` (stereo partly drawn) [Compound 52], the DC50 is reported as less than 1 nM.
Work on `CN1C[C@H](Nc2cnn(C)c(=O)c2Br)C[C@H](c2ccc(CN(C)c3ccc(Oc4cccc5c4C(=O)N(C4CCC(=O)NC4=O)C5=O)cc3)cc2)C1` (stereo partly drawn) [Compound 53] yielded a DC50 of 1 to 30 nM.
Molecule `CN1C[C@H](Nc2cnn(C)c(=O)c2Br)C[C@H](c2ccc(C(=O)N3CCC(C#CCOc4ccc5c(c4)C(=O)N(C4CCC(=O)NC4=O)C5=O)CC3)cc2)C1` (stereo partly drawn) [Compound 54] has a DC50 of less than 1 nM.
Work on `CN1C[C@H](Nc2cnn(C)c(=O)c2Br)C[C@H](c2ccc(C(=O)N(C)Cc3ccc(COc4cccc5c4C(=O)N(C4CCC(=O)NC4=O)C5=O)cc3)cc2)C1` (stereo partly drawn) [Compound 55] yielded a DC50 of less than 1 nM.
With `CN1C[C@H](Nc2nn(C)c(=O)n(C)c2=O)C[C@H](c2ccc(C(=O)N3CCN(Cc4ccc(C(=O)Nc5cccc6c5C(=O)N(C5CCC(=O)NC5=O)C6=O)cc4)CC3)cc2)C1` (stereo partly drawn) [Compound 56] the DC50 was greater than 30 nM.
With `CN1C[C@H](Nc2cnn(C)c(=O)c2Br)C[C@H](c2ccc(C(=O)N3CCN(Cc4cccc(C(=O)Nc5cccc6c5C(=O)N(C5CCC(=O)NC5=O)C6=O)c4)CC3)cc2)C1` (stereo partly drawn) [Compound 57] the DC50 was 1 to 30 nM.
In the case of `CN1C[C@H](Nc2cnn(C)c(=O)c2Br)C[C@H](c2ccc(CN3CCN(Cc4cccc5c4C(=O)N(C4CCC(=O)NC4=O)C5=O)CC3)cc2)C1` (stereo partly drawn) [Compound 58], the DC50 is reported as 1 to 30 nM.
